According to US20250340538A1, “IMIDAZOLONE DERIVATIVES AS INHIBITORS OF PROTEIN KINASES IN PARTICULAR DYRK1A, CLK1 AND/OR CLK4” (PERHA PHARMACEUTICALS, priority 2021, published 2025):
“And” between values parts separate entries of the source, which are not always exact repeats. Identical values can stand only once. Like-named read-outs stand apart in the source and are kept apart here.

Key:
Assay type in all cases: biochemical
CLK1 = target: T1, CLK1 (Homo sapiens, UniProt P49759); test: Radiometric protein kinase assay (33PanQinase Activity Assay), CLK1
T1 construct: GST-fusion or His-tag (not specified per kinase); purchased ProQinase GmbH; host or cells: Sf9 insect cells or E. coli (not specified per kinase)
T1 sequence (P49759 whole entry, the tested form may be a part): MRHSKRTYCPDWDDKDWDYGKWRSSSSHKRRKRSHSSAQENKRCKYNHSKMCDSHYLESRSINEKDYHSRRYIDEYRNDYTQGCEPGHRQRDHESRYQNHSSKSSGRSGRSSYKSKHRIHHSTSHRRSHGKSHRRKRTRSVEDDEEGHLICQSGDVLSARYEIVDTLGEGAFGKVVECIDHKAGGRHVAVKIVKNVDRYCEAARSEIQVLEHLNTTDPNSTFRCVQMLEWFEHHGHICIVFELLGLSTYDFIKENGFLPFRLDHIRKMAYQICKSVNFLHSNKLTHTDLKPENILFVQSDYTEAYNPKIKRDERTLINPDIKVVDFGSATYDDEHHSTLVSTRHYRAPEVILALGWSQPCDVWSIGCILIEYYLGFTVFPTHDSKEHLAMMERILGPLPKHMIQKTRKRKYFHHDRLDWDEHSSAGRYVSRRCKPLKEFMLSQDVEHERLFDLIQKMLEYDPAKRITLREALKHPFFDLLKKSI
Procedure, shortened: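 33P incorporation counted by microplate scintillation after H3PO4 stop and NaCl washes; IC50 fitted from dose-response curves. Reactions of kinase/substrate, [γ-33P]-ATP and compound ran 60 min at 30 °C, 1% DMSO final, 10 concentrations (10 μM–30 nM).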

CLK4 = target: T2, CLK4 (Homo sapiens, UniProt Q9HAZ1); test: Radiometric protein kinase assay (33PanQinase Activity Assay), CLK4; conditions: read-out: IC50 on CLK4 (most potent CLK4 inhibitors)
T2 construct: GST-fusion or His-tag (not specified per kinase); purchased ProQinase GmbH; host or cells: Sf9 insect cells or E. coli (not specified per kinase)
T2 sequence (Q9HAZ1 whole entry, the tested form may be a part): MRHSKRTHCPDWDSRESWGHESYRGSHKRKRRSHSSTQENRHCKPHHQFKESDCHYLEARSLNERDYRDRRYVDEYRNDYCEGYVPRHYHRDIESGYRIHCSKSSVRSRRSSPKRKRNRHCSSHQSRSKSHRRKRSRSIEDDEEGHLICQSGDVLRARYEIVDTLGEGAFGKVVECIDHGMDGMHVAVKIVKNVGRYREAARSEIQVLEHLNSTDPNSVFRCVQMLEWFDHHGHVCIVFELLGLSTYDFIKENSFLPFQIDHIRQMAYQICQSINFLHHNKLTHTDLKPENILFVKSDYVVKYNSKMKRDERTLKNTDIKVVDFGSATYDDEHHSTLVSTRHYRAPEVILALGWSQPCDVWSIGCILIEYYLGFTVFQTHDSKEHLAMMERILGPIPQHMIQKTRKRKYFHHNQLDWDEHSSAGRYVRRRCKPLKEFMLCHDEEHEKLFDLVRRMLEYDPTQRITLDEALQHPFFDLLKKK
Procedure: (§1) Assays were performed by ProQinase GmbH (Engesserstr. 4, D-79108 Freiburg, Germany. www.proqinase.com). The IC50 profile of all compounds was determined using 12 protein kinases (CDK2/cyclin E, CK1ε, CLK1, 2, 3, 4, DYRK1A, 1B, 2, 3, 4, GSK3β).
(§2) The compounds were provided as […] in 100% DMSO. Prior to testing, the 1 μM stock solutions were subjected to a serial, semi-logarithmic dilution using 100% DMSO as a solvent. […] In the process, 90 μl H2O were added to each well of each compound dilution plate. To minimize potential precipitation, the H2O was added to each plate only a few minutes before the transfer of the compound solutions into the assay plates. The plate was shaken thoroughly, resulting in a compound dilution plate/10% DMSO.
(§3) For the assays (see below), 5 μL solution from each well of the compound dilution plates/10% DMSO were transferred into the assay plates. The final volume of the assay was 50 μL. All compounds were tested at 10 final assay concentrations in the range from 10 μM to 30 nM. The final DMSO concentration in the reaction cocktails was 1% in all cases.
(§4) All protein kinases provided by ProQinase were expressed in Sf9 insect cells or in E. coli as recombinant GST-fusion proteins or His-tagged proteins, either as full-length or enzymatically active fragments. All kinases were produced from human cDNAs and purified by either GSH-affinity chromatography or immobilized metal. Affinity tags were removed from a number of kinases during purification. The purity of the protein kinases was examined by SDS-PAGE/Coomassie staining, the identity was checked by mass spectroscopy.
(§5) A radiometric protein kinase assay (33PanQinase® Activity Assay) was used for measuring the kinase activity of the 12 protein kinases. All kinase assays were performed in 96-well FlashPlates™ from PerkinElmer (Boston, MA, USA) in a 50 μL reaction volume. The reaction cocktail was pipetted in four steps in the following order: • 25 μL of assay buffer (standard buffer/[γ-^33P]-ATP), • 10 μL of ATP solution (in H2O), • 5 μL of test compound (in 10% DMSO), • 10 μL of enzyme/substrate mixture.
(§6) The reaction cocktails were incubated at 30° C. for 60 minutes. The reaction was stopped with 50 μL of 2% (v/v) H3PO4, plates were aspirated and washed two times with 200 μL 0.9% (w/v) NaCl. Incorporation of ^33Pi was determined with a microplate scintillation counter (Microbeta, Wallac). The IC50 values for all compounds were calculated from the dose response curves
(§7) As a parameter for assay quality, the Z′-factor (Zhang et al., J. Biomol. Screen. 2: 67-73, 1999) for the low and high controls of each assay plate (n=8) was used. ProQinase's criterion for repetition of an assay plate is a Z′-factor below 0.4 (Iversen et al., J. Biomol. Screen. 3: 247-252, 2006).

DYRK1A = target: T3, DYRK1A (Homo sapiens, UniProt Q13627); test: Radiometric protein kinase assay (33PanQinase Activity Assay), DYRK1A; conditions: for Selectivity Class DYRK1A vs. CLK1: ratio of IC50 on CLK1 over IC50 on DYRK1A; for Selectivity Class DYRK1A vs. DYRK1B: ratio of IC50 on DYRK1B over IC50 on DYRK1A
T3 construct: GST-fusion or His-tag (not specified per kinase); purchased ProQinase GmbH; host or cells: Sf9 insect cells or E. coli (not specified per kinase)
Procedure, shortened: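 Recombinant human kinase, expressed in Sf9 or E. coli, in a radiometric [γ-33P]-ATP assay at 30 °C for 60 min. Compounds tested at 10 concentrations from 10 μM to 30 nM, 1% DMSO final. 33Pi incorporation measured by scintillation counting; IC50 from dose-response curves.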

DYRK1B = target: T4, DYRK1B (Homo sapiens, UniProt Q9Y463); test: Radiometric protein kinase assay (33PanQinase Activity Assay), DYRK1B; conditions: read-out: IC50 on DYRK1B (most potent DYRK1B inhibitors)
T4 construct: GST-fusion or His-tag (not specified per kinase); purchased ProQinase GmbH; host or cells: Sf9 insect cells or E. coli (not specified per kinase)
T4 sequence (Q9Y463 whole entry, the tested form may be a part): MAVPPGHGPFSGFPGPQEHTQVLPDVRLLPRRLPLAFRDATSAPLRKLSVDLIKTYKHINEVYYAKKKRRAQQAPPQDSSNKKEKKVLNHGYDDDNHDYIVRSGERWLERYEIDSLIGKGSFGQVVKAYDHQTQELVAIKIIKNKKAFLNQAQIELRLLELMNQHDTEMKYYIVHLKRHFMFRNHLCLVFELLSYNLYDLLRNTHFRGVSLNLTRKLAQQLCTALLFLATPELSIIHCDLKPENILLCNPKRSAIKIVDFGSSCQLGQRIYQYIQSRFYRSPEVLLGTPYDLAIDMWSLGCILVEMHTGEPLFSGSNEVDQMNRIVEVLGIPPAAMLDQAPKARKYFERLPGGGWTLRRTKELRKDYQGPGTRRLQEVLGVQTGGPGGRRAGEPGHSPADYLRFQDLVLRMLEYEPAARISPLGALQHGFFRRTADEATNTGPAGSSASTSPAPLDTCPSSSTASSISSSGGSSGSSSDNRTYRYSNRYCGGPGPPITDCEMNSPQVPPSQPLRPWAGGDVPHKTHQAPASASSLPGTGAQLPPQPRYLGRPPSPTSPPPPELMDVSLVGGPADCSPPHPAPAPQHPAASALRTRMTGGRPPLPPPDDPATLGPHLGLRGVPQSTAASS
Procedure: as §1, §2, §3, §4, §5, §6, §7

CLK2 = target: T5, CLK2 (Homo sapiens, UniProt P49760); test: Radiometric protein kinase assay (33PanQinase Activity Assay), CLK2; conditions: read-out: IC50 on CLK2 (most potent CLK2 inhibitors)
T5 construct: GST-fusion or His-tag (not specified per kinase); purchased ProQinase GmbH; host or cells: Sf9 insect cells or E. coli (not specified per kinase)
T5 sequence (P49760 whole entry, the tested form may be a part): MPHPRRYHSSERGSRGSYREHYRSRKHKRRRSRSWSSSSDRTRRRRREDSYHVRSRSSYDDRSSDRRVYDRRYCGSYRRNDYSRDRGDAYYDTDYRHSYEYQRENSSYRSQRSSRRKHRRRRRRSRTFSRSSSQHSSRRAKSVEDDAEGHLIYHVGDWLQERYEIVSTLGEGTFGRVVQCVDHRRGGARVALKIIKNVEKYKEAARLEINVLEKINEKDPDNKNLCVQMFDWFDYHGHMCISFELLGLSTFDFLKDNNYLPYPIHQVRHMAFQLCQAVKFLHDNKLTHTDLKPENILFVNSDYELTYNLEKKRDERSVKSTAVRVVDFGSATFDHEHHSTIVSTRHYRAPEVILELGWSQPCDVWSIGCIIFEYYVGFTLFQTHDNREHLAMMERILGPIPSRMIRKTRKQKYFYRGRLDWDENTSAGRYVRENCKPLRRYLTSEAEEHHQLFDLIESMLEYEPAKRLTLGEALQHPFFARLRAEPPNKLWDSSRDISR
Procedure: as §1, §2, §3, §4, §5, §6, §7

DYRK2 = target: T6, DYRK2 (Homo sapiens, UniProt Q92630); test: Radiometric protein kinase assay (33PanQinase Activity Assay), DYRK2; conditions: read-out: IC50 on DYRK2 (most potent DYRK2 inhibitors)
T6 construct: GST-fusion or His-tag (not specified per kinase); purchased ProQinase GmbH; host or cells: Sf9 insect cells or E. coli (not specified per kinase)
T6 sequence (Q92630 1-601): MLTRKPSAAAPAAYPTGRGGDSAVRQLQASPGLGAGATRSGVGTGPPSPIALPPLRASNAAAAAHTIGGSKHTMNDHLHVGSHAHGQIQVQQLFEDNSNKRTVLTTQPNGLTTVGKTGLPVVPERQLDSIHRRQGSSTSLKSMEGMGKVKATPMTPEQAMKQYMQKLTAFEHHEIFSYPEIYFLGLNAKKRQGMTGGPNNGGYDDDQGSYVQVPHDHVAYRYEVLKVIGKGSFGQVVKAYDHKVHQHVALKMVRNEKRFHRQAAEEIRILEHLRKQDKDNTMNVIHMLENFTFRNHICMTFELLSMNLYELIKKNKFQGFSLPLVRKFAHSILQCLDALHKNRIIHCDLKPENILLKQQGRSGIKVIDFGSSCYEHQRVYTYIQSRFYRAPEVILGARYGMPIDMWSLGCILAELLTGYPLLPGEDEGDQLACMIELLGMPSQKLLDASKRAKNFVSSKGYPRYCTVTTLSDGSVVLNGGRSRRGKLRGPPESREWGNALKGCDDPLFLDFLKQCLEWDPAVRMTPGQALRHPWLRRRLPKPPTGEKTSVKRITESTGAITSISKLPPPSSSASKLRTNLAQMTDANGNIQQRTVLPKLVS
Procedure: as §1, §2, §3, §4, §5, §6, §7

DYRK3 = target: T7, DYRK3 (Homo sapiens, UniProt O43781); test: Radiometric protein kinase assay (33PanQinase Activity Assay), DYRK3; conditions: read-out: IC50 on DYRK3 (most potent DYRK3 inhibitors)
T7 construct: GST-fusion or His-tag (not specified per kinase); purchased ProQinase GmbH; host or cells: Sf9 insect cells or E. coli (not specified per kinase)
T7 sequence (O43781 1-588): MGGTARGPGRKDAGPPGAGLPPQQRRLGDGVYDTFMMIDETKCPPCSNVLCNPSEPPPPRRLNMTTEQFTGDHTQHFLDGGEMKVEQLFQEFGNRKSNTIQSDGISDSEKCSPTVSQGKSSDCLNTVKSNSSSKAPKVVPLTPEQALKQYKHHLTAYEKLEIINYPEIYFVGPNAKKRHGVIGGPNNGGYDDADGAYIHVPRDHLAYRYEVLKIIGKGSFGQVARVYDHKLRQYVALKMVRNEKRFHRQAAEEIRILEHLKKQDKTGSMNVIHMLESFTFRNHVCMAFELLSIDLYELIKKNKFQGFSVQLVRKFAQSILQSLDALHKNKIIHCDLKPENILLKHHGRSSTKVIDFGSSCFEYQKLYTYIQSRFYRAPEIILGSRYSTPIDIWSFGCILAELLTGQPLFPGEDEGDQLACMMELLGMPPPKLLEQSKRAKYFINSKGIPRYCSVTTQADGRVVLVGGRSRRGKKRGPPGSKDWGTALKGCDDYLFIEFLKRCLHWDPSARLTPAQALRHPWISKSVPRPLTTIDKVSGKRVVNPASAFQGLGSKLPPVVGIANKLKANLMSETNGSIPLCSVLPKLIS
Procedure: as §1, §2, §3, §4, §5, §6, §7

CLK3 = target: T8, CLK3 (Homo sapiens, UniProt P49761); test: Radiometric protein kinase assay (33PanQinase Activity Assay), CLK3; conditions: read-out: IC50 on CLK3 (most potent CLK3 inhibitors)
T8 construct: GST-fusion or His-tag (not specified per kinase); purchased ProQinase GmbH; host or cells: Sf9 insect cells or E. coli (not specified per kinase)
T8 sequence (P49761 whole entry, the tested form may be a part): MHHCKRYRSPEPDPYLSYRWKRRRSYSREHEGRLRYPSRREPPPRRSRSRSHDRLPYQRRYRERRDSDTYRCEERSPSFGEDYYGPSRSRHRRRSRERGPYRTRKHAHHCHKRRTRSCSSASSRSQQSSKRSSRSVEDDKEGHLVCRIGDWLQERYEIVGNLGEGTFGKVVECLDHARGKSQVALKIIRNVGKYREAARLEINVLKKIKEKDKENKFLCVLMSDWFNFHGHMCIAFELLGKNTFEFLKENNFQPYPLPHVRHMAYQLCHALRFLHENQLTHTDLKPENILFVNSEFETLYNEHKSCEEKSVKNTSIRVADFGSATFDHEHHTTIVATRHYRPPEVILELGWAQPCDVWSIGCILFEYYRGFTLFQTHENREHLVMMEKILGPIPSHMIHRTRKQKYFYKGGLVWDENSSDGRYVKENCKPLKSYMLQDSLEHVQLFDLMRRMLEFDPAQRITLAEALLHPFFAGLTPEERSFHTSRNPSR
Procedure: as §1, §2, §3, §4, §5, §6, §7

[1] = IC50 class A to E, read-out: Potency Class CLK1
[2] = class by IC50 on CLK1, from dose-response curves, read-out: Potency Class CLK1
[3] = IC50 class A to E, read-out: Potency Class DYRK1A
[4] = class by IC50 on DYRK1A, from dose-response curves, read-out: Potency Class DYRK1A
[5] = read-out: IC50 on DYRK1A (most potent DYRK1A inhibitors)

Row | SMILES | IC50 (CLK1; [1]) [nM] | IC50 (CLK1; [2]) [nM] | IC50 (CLK4) [nM] | IC50 (DYRK1A; [3]) | IC50 (DYRK1A; [4]) [nM] | Selectivity Class DYRK1A vs. CLK1 (DYRK1A) | Selectivity Class DYRK1A vs. DYRK1B (DYRK1A) | IC50 (DYRK1A; [5]) [nM] | IC50 (DYRK1B) [nM] | IC50 (CLK2) [nM] | IC50 (DYRK2) [nM] | IC50 (CLK1; read-out: IC50 on CLK1 (most potent CLK1 inhibitors)) [nM] | IC50 (DYRK3) [nM] | IC50 (CLK3) [nM]
1 | O=C1NC(NC23CC4CC(CC(O)(C4)C2)C3)=N/C1=C\c1ccc2nccnc2c1 [Compound 18, (4Z)-2-[(3-hydroxy-1-adamantyl)amino]-4-(quinoxalin-6-ylmethylene)-1H-imidazol-5-one] | 10 to 25 | 10 to 25 | ≤ 10 | ≤ 5 nM | < 5 | II (ratio between 2 and 10 fold) | II (ratio between 2 and 10 fold) | ≤ 10 | ≤ 10 | – | – | – | – | –
2 | COC12CC3CC(CC(NC4=N/C(=C\c5ccc6nccnc6c5)C(=O)N4)(C3)C1)C2 [Compound 19, (4Z)-2-[(3-methoxy-1-adamantyl)amino]-4-(quinoxalin-6-ylmethylene)-1H-imidazol-5-one] | 10 to 25 | 10 to 25 | ≤ 10 | ≤ 5 nM | < 5 | II (ratio between 2 and 10 fold) | II (ratio between 2 and 10 fold) | ≤ 10 | ≤ 10 | ≤ 100 | ≤ 250 | – | – | –
3 | O=C1NC(NC23CC4CC(CC(F)(C4)C2)C3)=N/C1=C\c1ccc2nccnc2c1 [Compound 20, (4Z)-2-[(3-fluoro-1-adamantyl)amino]-4-(quinoxalin-6-ylmethylene)-1H-imidazol-5-one] | 10 to 25 | 10 to 25 | ≤ 10 | ≤ 5 nM | < 5 | II (ratio between 2 and 10 fold) | III (ratio between 0.5 and 2 fold) | ≤ 10 | ≤ 10 | ≤ 100 | ≤ 250 | ≤ 10 | ≤ 250 | –
4 | O=C1NC(NC23CC4CC(CC2C4)C3)=N/C1=C\c1ccc2ncccc2c1 [Compound 48, (4Z)-2-(3-noradamantylamino)-4-(6-quinolylmethylene)-1H-imidazol-5-one] | 10 to 25 | 10 to 25 | ≤ 10 | 5 to 10 nM | 5 to 10 | II (ratio between 2 and 10 fold) | II (ratio between 2 and 10 fold) | ≤ 10 | – | – | ≤ 250 | – | ≤ 250 | –
5 | O=C1NC(NC23CC4CC(CC(C4)C2)C3)=N/C1=C\c1ccc2ncccc2c1 [Compound 49, (4Z)-2-(1-adamantylamino)-4-(6-quinolylmethylene)-1H-imidazol-5-one] | 10 to 25 | 10 to 25 | – | 10 to 25 nM and 5 to 10 nM | 10 to 25 | II (ratio between 2 and 10 fold) | III (ratio between 0.5 and 2 fold) | ≤ 10 | – | ≤ 100 | – | – | ≤ 250 | –
6 | O=C1NC(NC23CC4CC(CC(C4)C2)C3)=N/C1=C\c1ccc2cnccc2c1 [Compound 61, (4Z)-2-(1-adamantylamino)-4-(6-isoquinolylmethylene)-1H-imidazol-5-one] | – | 25 to 50 | – | – | 25 to 50 | III (ratio between 0.5 and 2 fold) | III (ratio between 0.5 and 2 fold) | – | – | ≤ 100 | – | – | ≤ 250 | –
7 | COC[C@H](NC1=N/C(=C\c2ccc3ncncc3c2)C(=O)N1)c1ccccc1 [Compound 69, (4Z)-2-[[(1R)-2-methoxy-1-phenyl-ethyl]amino]-4-(quinazolin-6-ylmethylene)-1H-imidazol-5-one] | 10 to 25 | 10 to 25 | ≤ 10 | ≤ 5 nM | < 5 | II (ratio between 2 and 10 fold) | II (ratio between 2 and 10 fold) | ≤ 10 | ≤ 10 | ≤ 100 | ≤ 250 | – | ≤ 250 | –
8 | O=C1NC(NC2CCCCCC2)=N/C1=C\c1ccc2ncccc2n1 [Compound 80, (4Z)-2-(cycloheptylamino)-4-(1,5-naphthyridin-2-ylmethylene)-1H-imidazol-5-one] | – | 25 to 50 | – | – | 10 to 25 | III (ratio between 0.5 and 2 fold) | II (ratio between 2 and 10 fold) | – | – | – | – | – | – | ≤ 500
9 | CN1C(=O)/C(=C/c2ccc3cnccc3c2)N=C1NC1CCCCCC1 [Compound 87, (5Z)-2-(Cycloheptylamino)-3-methyl-5-(isoquinolin-6-ylmethylene)imidazol-4-one] | – | > 50 | – | – | > 50 | IV (ratio between 0.1 and 0.5 fold) | IV (ratio between 0.1 and 0.5 fold) | – | – | – | ≤ 250 | – | ≤ 250 | –
